Results reported in US20080146499A1, “Identification of the Precise Amino Acid Sequence of the Epitope Recognized by the Potent Neutralizing Human Anti-Hiv-1 Monoclonal Antibody Igg1b12” (priority 2005, published 2008).
No end group written: not given here. *: point of attachment. Biotin = O=C1N[C@H]2[C@H](CS[C@H]2CCCCC(=O)*)N1

What was measured:
N terminal peptide = settings: i.p. immunizations days 1, 15, 30, 45, 60; sera day 67; compared to control mice; FIG. 13 B
Protocol: For immunogenicity studies, 4 groups of 4 BALB/c mice (16 total) were immunized intraperitoneally (i.p.) 5 times over 2 months. The first group of mice received PBS plus Freund's adjuvant in each immunization, and the second group received 10-50 kg gp120. The third and fourth groups received 10 μg biotinylated peptide (group 3 received N-term, group 4, scrambled) linked to avidin.
ELISAs to detect Ab responses in mice were carried out by coating 96 well plates with 2.5 μg/ml gp120 or 5 μg/ml biotinylated peptide overnight at 4° C. Blood was obtained by venous tail puncture, serum was obtained by collecting the supernatant of blood that had been incubated at 4° C. for one hour and centrifuged in an Eppendorf microcentrifuge (Centrifuge 5417C, Brinkmann Instruments, Ltd. Mississauga, ON) twice for 30 minutes at maximum speed. Serum was diluted at 1/50 down in doubling dilutions and incubated on plates for 2 hours at 37° C., washed, and HRP-goat anti-mouse secondary antibody (Southern Biotechnology Associates, Inc., Birmingham, Ala.) was added. ABTS substrate (Roche Diagnostics Canada, Laval, PQ) was used for detection. Plates were read at 405 nm on the Spectramax Plus.

IgG1b12 antibody = test: Synthetic gp120 peptide binding to bead-linked IgG1b12, measured by mass spectrometry; design: species or system human; settings: synthetic peptides as starting material; FIG. 5
Protocol: The antibody was linked to cyanogen-bromide activated sepharose beads (Sigma-Aldrich, Oakville, Ontario). Epitope excision was performed to include potential conformational epitopes. The antibody-bead mixture was incubated with either MN or IIIB HIV-1 gp120 (ImmunoDiagnostics, Inc. Woburn, Mass.) or synthetic HIV-1 gp120 peptides (United Biochemical Research, Inc, Seattle, Wash., USA) for 2 hours under physiological conditions. After several washes, trypsin (Calbiochem-Novabiochem Corporation, San Diego, Calif., USA), or Glu-C (Roche Diagnostics Canada. Laval, Quebec) enzyme digests were performed. Unbound, digested material was washed away. Antibody-bound fragments protected from digestion were analyzed by mass spectrometry. Bead+antibody+peptide complex were spotted on a gold plate along with DHB matrix (Sigma-Aldrich, Oakville, Ontario) (3,4). The sample was analyzed on the prototypic QqTOF mass spectrometer by matrix-assisted laser desorption/ionization.
Epitope mapping experiments were performed using synthetic peptides. One peptide, the “N-term” (amino terminus) peptide was tested for it's binding to IgG1b12. The N-term sequence is as follows: [sequence]. A second peptide covered the CD4 binding site, including the isoleucine (I) residue.

[1] = target: biotinylated N-term peptide (biotin-…) (HIV-1); test: antigen capture ELISA, plates coated with IgG1 b12, biotinylated peptide detected with streptavidin alkaline phosphatase; reference: scrambled peptide

Biotin-LWVTVYYGVPVWKEATTTLFCASDAK [Nterm peptide]
serum antibodies binding N-terminal peptide (N terminal peptide): contains antibodies capable of binding both whole gp120 and N-terminal peptide | binding to IgG1 b12 relative to the scrambled peptide (IgG1 b12; antigen capture ELISA): 4 times | peptide binding to IgG1 b12 (IgG1 b12; plates coated with 2.5 μg/ml IgG1 b12, serially diluted biotinylated peptide, FIG. 11): bound IgG1 b12, and this binding was dose dependant | immunogenicity in the mouse model (gp120; BALB/c mice, biotinylated peptide linked to avidin, i.p.): immunogenic | serum antibodies binding whole gp120 (gp120; i.p. immunizations days 1, 15, 30, 45, 60, sera day 67, compared to control mice, FIG. 13 A): contains antibodies capable of binding both whole gp120 and N-terminal peptide

KLWVTVYYGVPVWKEATTTLFCASDAKAYDTE [amino terminus]
recognition of synthetic peptide by IgG1b12 (IgG1b12 antibody): specifically recognizes

IgG1b12 human monoclonal antibody
fold binding against the scrambled peptide [1]: 4 times
